Source: patent US6716436B1, “Cosmetic composition for slimming containing L-arginine, an L-arginine analogue, or one of their derivatives, for topical application” (Exsymol S.A.M., priority 1999, dated 2004)
Read-outs that look alike come from different tables or passages of the source.

Legend:
[1] = Comparative study of cutaneous diffusion (diffusion cell); settings: solution at 30 mM, 0.2 ml by cm^2 on hairless rat skin; L-arginine dosed by HPLC in dialysate
Experimental: (§1) Hairless rats are sacrified by intra-cardiac injection of pentobarbital; the ventral skin is recollected and hypodermis is removed with a scalpel. 0.2 ml by cm^2 of the solution to be tested are dropped on a piece of skin (dermis and epidermis) which is set on a diffusion cell. The diffusion is tested in comparison with phosphate buffer containing 0.5% of tween 20.
(§2) At different times, the phosphate buffer is replaced and L-arginine is dosed by HPLC in the recollected dialysate fractions.

[2] = system: Segments of perirenal adipose tissue; test: Lipolytic activity in vitro (glycerol liberation); assay type: cell-based, male rabbits; settings: rabbit perirenal adipose tissue, 37° C.
Experimental: The in vitro lipolytic activity of solutions containing compounds according to the invention is tested (Solutions at 4%).
Segments of perirenal adipose tissue of male rabbits are incubed in a Krebs-Ringer bicarbonate buffer pH 7.4, which contains 5,5 mM glucose, 40 mg/ml of bovin albumin serum. The total volume of incubation is 3 ml with the substance to be tested prepared in 0.01 M of NH4HCO3 and additionned in a volume of 0.1 ml. The preparations are stirred at 37° C., under a 95% O2, 5% CO2 atmosphere.
The lipolytic activity levels are quantified by glycerol liberation in the incubation medium and are expressed by gramme of lipid. The glycerol is dosed in duplicate by enzymatic method: glycerokinase, glycerophosphate deshydrogenase (Boerhinger-Mannheim), method of Wieland (32), modified by Vaughan (33).

[3] = hairless, rat, 30 mM
Experimental: as §1, §2

[4] = system: rats ZUCKER fa/fa; test: Test in vivo on rats (weight and measurement over 5 weeks); settings: group II ionisation every two days
Text: Three groups of 4 rats ZUCKER fa/fa defined in an homogeneous way were placed in the animal house at 8 weeks. The experiment begins when the rats have reached 9 weeks and similar weights (240±15 g); they are placed in individual cage with water and food ad libidum. The whole of the rats are circularly hair removed on median part in order to tattoo an axis between the neck and the tail. On a group N^o I, the emulsion described in example 1 is daily applied on the hair-removed part until absorption with removing the excess. […] A third group is used as the control (group C). These experiments are carried out during 5 weeks.

## CC(C)(C)C(=O)OCOC(=O)[C@@H](N)CCCNC(=N)N [L-arginylpivalloyoxymethylester]
[1]
  % of diffusion after 5h: 51%

## C[Si](O)(O)OC(=O)C(N)CCCNC(=N)N [Monomethylsilanediol of L-arginine]
[2]; 15 mg/L
  Glycerol: 1 ± 0.5 nmoles/g of lipids
[2]; 30 mg/L
  Glycerol: 2.40 ± 0.35 nmoles/g of lipids
[2]; 45 mg/L
  Glycerol: 2.5 ± 0.35 nmoles/g of lipids
[3]
  % of diffusion after 5h: 42%

## N=C(N)NCCC[C@H](N)C(=O)O.O=C(O)c1ccccc1O [Group II, arginium salicylate]
[4]; Week 1, group I daily topical
  Meas: 189.75 mm
  Weight: 280.25 g
[4]; Week 2, group I daily topical
  Meas: 213.25 mm
  Weights: 318.25 g
[4]; Week 3, group I daily topical
  Meas: 224.25 mm
  Weights: 345.5 g
[4]; Week 4, group I daily topical
  Meas: 233.25 mm
  Weights: 367.25 g
[4]; Week 5, group I daily topical
  Meas: 238.5 mm
  Weights: 386.25 g
